In assay [1] the target is HIV-1 reverse transcriptase (Human immunodeficiency virus type 1 group M subtype B, UniProt P04585). In words: Inhibition of HIV-1 reverse transcriptase. Format: biochemical, human immunodeficiency virus type 1 (HIV-1).
The target in the next assay is HBV DNA polymerases (Hepatitis B virus genotype D subtype ayw, UniProt P03156). Briefly: Inhibition of HBV DNA polymerases. Format: biochemical. To be noted: activity compared with the (S)-enantiomer.

These results are taken from patent US20060069108A1, “Use of (R)-penciclovir triphosphate for the manufacture of a medicament for the treatment of viral diseases” (priority 1995, published 2006).

Chain of HBV DNA polymerases (P03156 whole entry): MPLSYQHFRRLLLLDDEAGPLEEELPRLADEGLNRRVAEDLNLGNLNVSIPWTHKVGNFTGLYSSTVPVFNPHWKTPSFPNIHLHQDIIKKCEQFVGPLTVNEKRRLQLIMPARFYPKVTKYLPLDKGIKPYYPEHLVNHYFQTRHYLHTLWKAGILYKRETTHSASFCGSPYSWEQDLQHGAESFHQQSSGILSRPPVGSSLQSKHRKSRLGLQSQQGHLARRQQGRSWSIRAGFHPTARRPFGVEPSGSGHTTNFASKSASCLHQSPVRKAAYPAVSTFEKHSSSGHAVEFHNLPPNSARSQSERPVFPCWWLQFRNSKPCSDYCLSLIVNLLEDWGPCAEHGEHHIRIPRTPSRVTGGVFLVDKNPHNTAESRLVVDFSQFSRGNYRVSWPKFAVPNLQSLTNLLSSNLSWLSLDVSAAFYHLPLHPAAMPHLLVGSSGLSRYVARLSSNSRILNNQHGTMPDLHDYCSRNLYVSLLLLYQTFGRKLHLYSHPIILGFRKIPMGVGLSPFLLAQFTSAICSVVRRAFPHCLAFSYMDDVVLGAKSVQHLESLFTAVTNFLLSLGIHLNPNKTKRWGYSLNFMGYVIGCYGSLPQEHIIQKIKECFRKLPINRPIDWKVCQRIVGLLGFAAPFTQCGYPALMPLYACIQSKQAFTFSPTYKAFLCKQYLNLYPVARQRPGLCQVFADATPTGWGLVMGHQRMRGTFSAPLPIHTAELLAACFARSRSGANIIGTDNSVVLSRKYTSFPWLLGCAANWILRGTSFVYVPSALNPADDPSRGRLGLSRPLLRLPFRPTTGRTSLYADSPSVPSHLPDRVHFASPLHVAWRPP

For the molecule `Nc1nc2c(ncn2CC[C@H](CO)COP(=O)(O)OP(=O)(O)OP(=O)(O)O)c(=O)[nH]1` (single isomer, unassigned) [(R)-enantiomer of PCV-TP], the “inhibition of HIV-1 reverse transcriptase” value in assay [1] (activity compared with the (S)-enantiomer) is listed as “more active than the (S)-enantiomer”. Further, the “inhibition of HBV DNA polymerases” value on HBV DNA polymerases is “more active than the (S)-enantiomer”. Turning to “penciclovir triphosphate [triphosphate derivative of penciclovir, reference compound]”, the “inhibition of RNA-directed DNA polymerase (reverse transcriptase) activity of HIV-1” value in assay [1] was “inhibits”.
